From patent US4277498A, “Amides” (Burroughs Wellcome Co., priority 1976, dated 1981)
Structures can show the parent of a compound that is named as a salt. Where two headings read alike, the source gives them in different places.

Legend:
[1] = Anti-tetrabenazine test (ptosis and sedation), Example 37; type: in vivo, Female albino mice; conditions: Mus musculus, po
Protocol: Female albino mice were grouped, six per cage. Compounds of formula (I) as the respective salt in saline solution were administered orally, thirty minutes prior to the administration of tetrabenazine, 50 mg/kg, i.p. The animals were scored according to the method of V. G. Vernier, H. M. Hanson and C. A. Stone: Psychosomatic medicine, ch.

[2] = tetrabenazine-induced sedation test in the rat (general statements on antidepressant activity); type: in vivo; conditions: acceptable salts
in vivo = conditions: mouse, po, mice, p.o. as salt in saline, deaths within two days
Protocol: Several groups of mice were treated with specific doses of compounds of formula (I) as orally administered salts in saline solution. After treatment of each group with a different dose of a specific compound the number of mice dead in each group within two days was noted. […] The LD50 value is the lethal dose required to kill half of the treated animals.
The procedure was repeated with other groups of mice for other compounds of formula (I).

[3] = ptosis, mice, p.o. as salt in saline, 30 min before tetrabenazine 50 mg/kg i.p., read-out: Anti-depressant activity, approx. ED50 values, p.o., Ptosis
[4] = sedation, mice, p.o. as salt in saline, 30 min before tetrabenazine 50 mg/kg i.p., read-out: Anti-depressant activity, approx. ED50 values, p.o., Sedation

SMILES	ED50 [1, 3] [mg/kg]	ED50 [1, 4] [mg/kg]	LD50 at 48 h (in vivo) [mg/kg]	other results
CC(CC1CCCCC1)NC(=O)CN (racemic) [Example 9, hydrogen fumarate, (±)-2-Amino-N-(2-cyclohexyl)-1-methylethyl)acetamide hydrogen fumarate]	~6	~7.5		
CC(C)CCCC(C)(C)NC(=O)CN [2-amino-N-(1,1,5-trimethylhexyl)acetamide]				antidepressant activity in the tetrabenazine-induced sedation test [2]: have shown antidepressant activity
CCCCCC(C)NC(=O)CN (stereo not drawn) [2-amino-N-(1-methylhexyl)acetamide]				antidepressant activity in the tetrabenazine-induced sedation test [2]: have shown antidepressant activity
CC(C)(CC1CCCC1)NC(=O)CN [2-amino-N-(2-cyclopentyl-1,1-dimethylethyl)acetamide]				antidepressant activity in the tetrabenazine-induced sedation test [2]: have shown antidepressant activity
CCCCCC(C)(C)NC(=O)CN [Example 2, hydrogen oxalate, 2-amino-N-(1,1-dimethylhexyl)acetamide]	~3.5	~2.3		
CC1(NC(=O)CN)CCCCC1 [Example 3, hydrogen oxalate, 2-Amino-N-(1-methylcyclohexyl)acetamide]	~6.92	~5.69	> 2000	
CC1(NC(=O)CN)CCCCCC1 [Example 4, hydrogen oxalate, 2-Amino-N-(1-methylcycloheptyl)acetamide]	~5	~10.6	1110	
CCCCC(C)(C)NC(=O)CN.O=C(O)C(=O)O [Example 5, hydrogen oxalate, 2-amino-N-(1,1-dimethylpentyl)acetamide hydrogen oxalate]	~20	~10	536	
CCCC(C)CC(C)(C)NC(=O)CN (stereo not drawn) [Example 6, hydrogen fumarate, 2-amino-N-(1,1,3-trimethylhexyl)acetamide]	~18.7	~9.5		
CCCCCCC(C)(C)NC(=O)CN [Example 7, hydrogen fumarate, 2-Amino-N-(1,1-dimethylheptyl)acetamide]			1000	
CCCCCC(C)NC(=O)CN.O=C(O)CCC(=O)O (stereo not drawn) [Example 8, hydrogen succinate, 2-Amino-N-(1-methylhexyl)acetamide hydrogen succinate]	~3.8	~2.7	500	
CC(C)(CC1CCCC1)NC(=O)CN.CCO.O=C(O)/C=C/C(=O)O [Example 11, hydrogen fumarate, 2-Amino-N-(1,1-dimethyl-2-cyclopentylethyl)acetamide hydrogen fumarate monoethanolate]			575	ED50 ([1]; read-out: Anti-depressant activity, approx. ED50 values, p.o., Ptosis): ~5 mg/kg; ED50 ([1]; read-out: Anti-depressant activity, approx. ED50 values, p.o., Sedation): ~5 mg/kg
CC(C)CCCC(C)(C)NC(=O)CN [Example 12, hydrogen succinate, 2-amino-N-(1,1,5-trimethylhexyl)acetamide]	~8	~2.5		
